Assay results from US3997530A, “Substituted enaminoketones” (American Cyanamid Company, priority 1976, dated 1976).
Where “and” joins values, the source holds several entries; their conditions need not be identical. Identical values can stand only once. Each block holds one compound with its values, some of them ahead of it.

Columns and labels:
[1] = "writhing syndrome" test for analgesic activity (phenyl-p-quinone); assay type: in vivo, male Swiss albino mice; details: 100 mg./kg. oral, 30 minutes before phenyl-p-quinone; 3 minute count commencing 15 minutes after; control approximately 30 per pair; active if 18 or less
Description: The substituted enaminoketones of the present invention are active analgesics when measured by the "writhing syndrome" test for analgesic activity as described by Siegmund, et al., Proc. Soc. Exp. Bio. and Med., 95, 729 (1957), with modifications. This method is based upon the reduction of the number of writhes following the intraperitoneal injection of one mg./kg. of body weight of phenyl-p-quinone in male Swiss albino mice weighing 18-25 gm. The syndrome is characterized by intermittent contractions of the abdomen, twisting and turning of the trunk, and extension of the hind legs beginning 3 to 5 minutes after injection of the phenyl-p-quinone. The test compounds are administered orally at the indicated dose to groups of 2 mice each, 30 minutes before injection of the phenyl-p-quinone. […] A compound is considered active if it reduces the total number of writhes in 2 test mice from a control value of approximately 30 pair to a value of 18 or less. Table I summarized the results of this test on representative compounds of this invention.

[2] = Water solubility of salts; assay type: physicochemical
[3] = Walking gait test in rats with yeast-inflamed paw (modified Atkinson and Cowan); assay type: in vivo, male, albino Wistar strain rats; details: oral by gavage, dose producing 50% reversal of the pre-dose gait score, one and/or two hours post-drug
Description: Atkinson and A. Cowan, J. Pharm. Pharmac, 26, 727 (1974).
In this test male, albino Wistar strain rats from Royalhart farms, weighing 120-150 g. are deprived of food for about 20 hours. A 40% suspension of brewers' yeast in physiological saline is injected, at a concentration of 0.25 ml/rat into the plantar surface of the left hind paw of each rat. 3 hours later, at which time an inflammation of the injected paw has developed, a pre-drug assessment of walking gait is made for each rat according to the following scoring system:
0 = Normal gait in the presence of a severely inflammed paw. There is continuous use of the foot pad.
0.5 = As above with intermittent mild limping.
1.0 = Constant limping, but continuous use of the foot pad.
1.5 = Limping with occasional three-legged gait (paw kept off walking surface) or intermittent use of digits in combination with foot pad.
2.0 = Continuous three-legged gait and/or only the tips of the digits touch the walking surface. There is no use of foot pad.
Compounds, in a suitable vehicle, are administered orally by gavage in a volume of 0.5 ml./100 g. of body weight. One and/or two hours later a post-drug assessment of walking gait is made as described above. The criterion of an analgesic response for each rat is a 50% reversal of the abnormal gait score (post-drug) from the pre-drug score. […]

[4] = Brewer's Yeast Pressure Pain Test (modified Randall and Selitto); assay type: in vivo, rats
Description: To determine analgesic activity, a modification of the method of Randall and Selitto [Arch. int. Pharmacodyn., 111, 409 (1957)] is used. This test measures the pain threshold of rats whose paws are made sensitive to pressure by the injection of a 20% aqueous suspension (0.1 ml.) of brewers' yeast into the plantar surface of the left hind paw. Constantly increasing force (16 grams/second) is applied to the swollen paw using an Analgesy Meter, Ugo Basile. The pressure is cut off at 250 grams of force when there is no response (sudden struggle or vocalization). Control rats treated with the starch vehicle response to a pressure or force of about 30 grams. Pressure-pain thresholds are always recorded 2 hours after brewers' yeast. Analgesic agents are administered at the same time as the yeast, at a dose of 200 mg./kg. orally. Ratios of treated (T)/control (C) reaction thresholds are calculated as estimates of analgesic efficacy (degree of analgesia attainable). Potency is regarded as the dose necessary to produce a given level of analgesia (i.e. 100% elevation of pain threshold is T/C=2.0).

[5] = Antipyretic activity, brewers' yeast-induced hyperthermia (modified Teotino et al.); assay type: in vivo, rats
Description: The compounds of this invention also show antipyretic activity by their ability to reduce a hyperthermic response in warm-blooded animals, e.g., rats, induced by the subcutaneous injection of a suspension of brewers' yeast. This is a modification of the method described by Teotino, et al., J. Med. Chem. 6, 248 (1963). A 40% suspension of brewer's yeast in distilled water is administered to groups of five to ten rats subcutaneously (1.0 ml./100 g. of body weight). Eighteen hours later, rectal temperatures are recorded and compounds, control vehicle (2% starch suspension) or aspirin is administered. Rectal temperatures are recorded 4 hours later and the results are compared with the starch treated controls and with aspirin, a reference antipyretic agent.

Compound: NC(=CC(=O)c1cnccn1)C1CC1 [1-amino-1-cyclopropyl-3-(2-pyrazinyl)-1-propen-3-one]
No. of writhes per pair [1]: 3.8

Compound: NC(=CC(=O)c1cccnc1)C1CC1 [3-amino-3-cyclopropyl-1-(3-pyridyl)-2-propen-1-one]
ED50 ([3]; Rattus norvegicus, po, 2 h, read-out: ED50): 27 mg/kg
ED50 [3]: 40 mg/kg and 26 mg/kg

Compound: NC(=CC(=O)c1ccncc1)C1CC1 [3-amino-3-cyclopropyl-1-(4-pyridyl)-2-propen-1-one]
Ratio (Treated/Control) Measured at 2 Hours Following 200 mg./kg. Oral Dose ([4]; 200 mg./kg. orally, 2 hours after brewers' yeast, ratio of reaction thresholds T/C): 1.45 and 1.39
ED50 ([4]; Rattus norvegicus, 2 h, oral, Brewer's Yeast Pressure Pain Test): 25 mg/kg
effect on body temperature of normal rats ([5]; 200 mg./kg., normal rats): not effecting the body temperature of normal rats
lowering the yeast-elevated body temperature of rats ([5]; 200 mg./kg., rectal temperature 4 hours later, yeast-treated rats): effective in lowering the yeast-elevated body temperature of rats
No. of writhes per pair [1]: 9.4

Compound: CC(=O)Oc1ccccc1C(=O)O [Aspirin, reference compound]
effect on temperature of normal rats ([5]; aspirin reference, dose not given, normal rats): not effecting the temperature of normal rats
lowering yeast-elevated temperatures ([5]; aspirin reference, dose not given, yeast-treated rats): similarly effective in lowering yeast-elevated temperatures

Further lines, results first:

water solubility ([2]; sulfate salt): water soluble
Compound: c1cncc(-c2cc(C3CC3)no2)c1 [3-(3-cyclopropyl-5-isoxazolyl)pyridine]

solubility ([2]; acetate salt): slightly soluble
Compound: c1cncc(-c2cc(C3CC3)on2)c1 [3-(5-cyclopropyl-3-isoxazolyl)pyridine]

water solubility ([2]; phosphate salt): water soluble
Compound: c1cc(-c2cc(C3CC3)no2)ccn1 [4-(3-cyclopropyl-5-isoxazolyl)pyridine]

water solubility ([2]; citrate salt): slightly water soluble
Compound: c1cc(-c2cc(C3CC3)on2)ccn1 [4-(5-cyclopropyl-3-isoxazolyl)pyridine]
